How the values were obtained:
[1] = target: human KEAP1 (N-term, residues 321-609) (Homo sapiens, UniProt Q14145); assay: biochemical;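 further: fluorescence polarization competition assay of Kelch domain binding to NRF2, 12-point 1:3 dilution series from 10 µM, read after 1 h at room temperature, floor 10 nM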
[2] = test system: NQO1 mRNA in BEAS-2B cells; assay: Beas2B NQO1 mRNA cell based assay; set-up: species or system human; settings: Homo sapiens, BEAS-2B, 24 h, 24 h compound treatment, increase in NQO1 mRNA vs vehicle (0.1% DMSO), read-out: EC50
Summary of the method: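 BEAS-2B human bronchial epithelial cells exposed to compound for 24 h at 37 °C, 5% CO2. NQO1 mRNA measured by one-step TaqMan RT-qPCR on unpurified lysates, normalized to β-actin; relative expression by ΔΔCT method.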

human KEAP1 (N-term, residues 321-609), sequence (Q14145 321-609): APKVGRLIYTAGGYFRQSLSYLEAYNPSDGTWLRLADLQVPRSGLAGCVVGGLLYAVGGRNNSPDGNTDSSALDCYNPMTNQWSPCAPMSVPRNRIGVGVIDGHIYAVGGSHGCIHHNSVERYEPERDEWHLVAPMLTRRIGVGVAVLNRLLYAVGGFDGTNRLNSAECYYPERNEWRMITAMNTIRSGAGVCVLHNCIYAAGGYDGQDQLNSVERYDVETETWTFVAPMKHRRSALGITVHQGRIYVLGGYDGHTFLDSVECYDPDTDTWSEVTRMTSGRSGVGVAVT

IC50 [1] | SMILES | EC50 [2]
5.2 nM | Cn1nnc(COc2ccc(Br)c3c2[C@@H](CN2CCCC2=O)N(C(=O)[C@@H]2CCCC[C@]2(C)C(=O)O)CC3)c1C(F)(F)F [Example 191, (1S,2R)-2-((S)-5-bromo-8-((1-methyl-5-(trifluoromethyl)-1H-1,2,3-triazol-4-yl)methoxy)-1-((2-oxopyrrolidin-1-yl)methyl)-1,2,3,4-tetrahydroisoquinoline-2-carbonyl)-1-methylcyclohexane-1-carboxylic acid] | 2.1 nM
8.5 nM | C[C@]1(C(=O)O)CCCC[C@H]1C(=O)N1CCc2c(Cl)ccc(OCc3nnn(C4COC4)c3C(F)F)c2[C@H]1CN1CC2(CC2)CC1=O [Example 192, (1S,2R)-2-((S)-5-chloro-8-((5-(difluoromethyl)-1-(oxetan-3-yl)-1H-1,2,3-triazol-4-yl)methoxy)-1-((6-oxo-5-azaspiro[2.4]heptan-5-yl)methyl)-1,2,3,4-tetrahydroisoquinoline-2-carbonyl)-1-methylcyclohexane-1-carboxylic acid] | 3.8 nM
7.9 nM | C[C@@H]1CCC(=O)N1C[C@@H]1c2c(OCc3nnn(C)c3C(F)F)ccc(Cl)c2CCN1C(=O)[C@@H]1CCCC[C@]1(C)C(=O)O [Example 194, (1S,2R)-2-((S)-5-chloro-8-((5-(difluoromethyl)-1-methyl-1H-1,2,3-triazol-4-yl)methoxy)-1-(((R)-2-methyl-5-oxopyrrolidin-1-yl)methyl)-1,2,3,4-tetrahydroisoquinoline-2-carbonyl)-1-methylcyclohexane-1-carboxylic acid] | 12 nM
13 nM | C[C@H]1CCC(=O)N1C[C@@H]1c2c(OCc3nnn(C)c3C(F)F)ccc(Cl)c2CCN1C(=O)[C@@H]1CCCC[C@]1(C)C(=O)O [Example 195, (1S,2R)-2-((S)-5-chloro-8-((5-(difluoromethyl)-1-methyl-1H-1,2,3-triazol-4-yl)methoxy)-1-(((S)-2-methyl-5-oxopyrrolidin-1-yl)methyl)-1,2,3,4-tetrahydroisoquinoline-2-carbonyl)-1-methylcyclohexane-1-carboxylic acid] | 6.8 nM
5.6 nM | C[C@]1(C(=O)O)CCCC[C@H]1C(=O)N1CCc2c(Cl)ccc(OCc3nnn4c3CCCC4)c2[C@H]1CN1CCOCC1=O [Example 196] | 0.97 nM
5.2 nM | Cn1nnc(COc2ccc(Br)c3c2[C@@H](CN2CC4(CC4)CC2=O)N(C(=O)[C@@H]2CCCC[C@]2(C)C(=O)O)CC3)c1C(F)F [Example 198, (1S,2R)-2-((S)-5-bromo-8-((5-(difluoromethyl)-1-methyl-1H-1,2,3-triazol-4-yl)methoxy)-1-((6-oxo-5-azaspiro [2.4]heptan-5-yl)methyl)-1,2,3,4-tetrahydroisoquinoline-2-carbonyl)-1-methylcyclohexane-1-carboxylic acid] | 0.24 nM
5.3 nM | Cn1nnc(COc2ccc(Cl)c3c2[C@@H](CN2CC4(CC4)CC2=O)N(C(=O)[C@@H]2CCCC[C@]2(C)C(=O)O)CC3)c1C1COC1 [Example 199, (1S,2R)-2-((S)-5-chloro-8-((1-methyl-5-(oxetan-3-yl)-1H-1,2,3-triazol-4-yl)methoxy)-1-((6-oxo-5-azaspiro [2.4]heptan-5-yl)methyl)-1,2,3,4-tetrahydroisoquinoline-2-carbonyl)-1-methylcyclohexane-1-carboxylic acid] | 0.34 nM
5.1 nM | Cn1nnc(COc2ccc(Cl)c3c2[C@@H](CN2CCOCC2=O)N(C(=O)[C@@H]2CCCC[C@]2(C)C(=O)O)CC3)c1C(F)F [Example 200, (1S,2R)-2-((S)-5-chloro-8-((5-(difluoromethyl)-1-methyl-1H-1,2,3-triazol-4-yl)methoxy)-1-((3-oxomorpholino)methyl)-1,2,3,4-tetrahydroisoquinoline-2-carbonyl)-1-methylcyclohexane-1-carboxylic acid] | 1.2 nM
3.3 nM | Cn1nnc(COc2ccc(Cl)c3c2[C@@H](CN2CC4(CC4)CC2=O)N(C(=O)[C@@H]2CC=CC[C@]2(C)C(=O)O)CC3)c1C(F)F [Example 201, (1S,6R)-6-((S)-5-chloro-8-((5-(difluoromethyl)-1-methyl-1H-1,2,3-triazol-4-yl)methoxy)-1-((6-oxo-5-azaspiro[2.4]heptan-5-yl)methyl)-1,2,3,4-tetrahydroisoquinoline-2-carbonyl)-1-methylcyclohex-3-ene-1-carboxylic acid] | 0.33 nM
6.2 nM | Cn1nnc(COc2c(F)cc(Cl)c3c2[C@@H](CN2CC4(CC4)CC2=O)N(C(=O)[C@@H]2CCCC[C@]2(C)C(=O)O)CC3)c1C(F)F [Example 203, (1S,2R)-2-((S)-5-chloro-8-((5-(difluoromethyl)-1-methyl-1H-1,2,3-triazol-4-yl)methoxy)-7-fluoro-1-((6-oxo-5-azaspiro[2.4]heptan-5-yl)methyl)-1,2,3,4-tetrahydroisoquinoline-2-carbonyl)-1-methylcyclohexane-1-carboxylic acid] | 0.4 nM
6.9 nM | C[C@]1(C(=O)O)CCCC[C@H]1C(=O)N1CCc2c(Cl)ccc(OCc3ncsc3C(F)F)c2[C@H]1CN1CC2(CC2)CC1=O [Example 204, (1S,2R)-2-((S)-5-chloro-8-((5-(difluoromethyl)thiazol-4-yl)methoxy)-1-((6-oxo-5-azaspiro[2.4]heptan-5-yl)methyl)-1,2,3,4-tetrahydroisoquinoline-2-carbonyl)-1-methylcyclohexane-1-carboxylic acid] | 13 nM
5.5 nM | Cc1scnc1COc1ccc(Cl)c2c1[C@@H](CN1CC3(CC3)CC1=O)N(C(=O)[C@@H]1CCCC[C@]1(C)C(=O)O)CC2 [Example 205, (1S,2R)-2-((S)-5-chloro-8-((5-methylthiazol-4-yl)methoxy)-1-((6-oxo-5-azaspiro[2.4]heptan-5-yl)methyl)-1,2,3,4-tetrahydroisoquinoline-2-carbonyl)-1-methylcyclohexane-1-carboxylic acid] | 19 nM
6.6 nM | Cn1ncc(COc2ccc(Cl)c3c2[C@@H](CN2CC4(CC4)CC2=O)N(C(=O)[C@@H]2CCCC[C@]2(C)C(=O)O)CC3)n1 [Example 206, (1S,2R)-2-((S)-5-chloro-8-((2-methyl-2H-1,2,3-triazol-4-yl)methoxy)-1-((6-oxo-5-azaspiro[2.4]heptan-5-yl)methyl)-1,2,3,4-tetrahydroisoquinoline-2-carbonyl)-1-methylcyclohexane-1-carboxylic acid] | 34 nM
5.1 nM | Cn1nnc(COc2ccc(Cl)c3c2[C@@H](CN2CC4(CC4)CC2=O)N(C(=O)[C@@H]2C[C@@H]4C[C@@H]4C[C@]2(C)C(=O)O)CC3)c1C(F)F [Example 207, (1R,3S,4R,6S)-4-((S)-5-chloro-8-((5-(difluoromethyl)-1-methyl-1H-1,2,3-triazol-4-yl)methoxy)-1-((6-oxo-5-azaspiro[2.4]heptan-5-yl)methyl)-1,2,3,4-tetrahydroisoquinoline-2-carbonyl)-3-methylbicyclo[4.1.0]heptane-3-carboxylic acid] | 0.89 nM
580 nM | Cn1nnc(COc2ccc(Cl)c3c2[C@@H](CN2CC4(CC4)CC2=O)N(C(=O)[C@@H]2C[C@H]4C[C@H]4C[C@]2(C)C(=O)O)CC3)c1C(F)F [Example 208, (1S,3S,4R,6R)-4-((S)-5-chloro-8-((5-(difluoromethyl)-1-methyl-1H-1,2,3-triazol-4-yl)methoxy)-1-((6-oxo-5-azaspiro[2.4]heptan-5-yl)methyl)-1,2,3,4-tetrahydroisoquinoline-2-carbonyl)-3-methylbicyclo[4.1.0]heptane-3-carboxylic acid] | 3300 nM
8.4 nM | C[C@]1(C(=O)O)CCCC[C@H]1C(=O)N1CCc2c(Cl)ccc(OC3CCn4cnnc43)c2[C@H]1CN1CC2(CC2)CC1=O (stereo partly drawn) [Example 209, (1S,2R)-2-((1S)-5-chloro-8-((6,7-dihydro-5H-pyrrolo [2,1-c][1,2,4]triazol-7-yl)oxy)-1-((6-oxo-5-azaspiro[2.4]heptan-5-yl)methyl)-1,2,3,4-tetrahydroisoquinoline-2-carbonyl)-1-methylcyclohexane-1-carboxylic acid] | 290 nM
5.9 nM | [2H][C@@H]1C[C@@H](C(=O)N2CCc3c(Cl)ccc(OCc4nnn(C)c4C(F)F)c3[C@H]2CN2CC3(CC3)CC2=O)[C@@](C)(C(=O)O)C[C@@H]1[2H] [Example 210, (1S,2R,4S,5R)-2-((S)-5-chloro-8-((5-(difluoromethyl)-1-methyl-1H-1,2,3-triazol-4-yl)methoxy)-1-((6-oxo-5-azaspiro[2.4]heptan-5-yl)methyl)-1,2,3,4-tetrahydroisoquinoline-2-carbonyl)-1-methylcyclohexane-1-carboxylic-4,5-d2 acid] | 0.24 nM
6.8 nM | Cn1cccc(COc2ccc(Cl)c3c2[C@@H](CN2CC4(CC4)CC2=O)N(C(=O)[C@@H]2CCCC[C@]2(C)C(=O)O)CC3)c1=O [Example 211, (1S,2R)-2-((S)-5-chloro-8-((1-methyl-2-oxo-1,2-dihydropyridin-3-yl)methoxy)-1-((6-oxo-5-azaspiro[2.4]heptan-5-yl)methyl)-1,2,3,4-tetrahydroisoquinoline-2-carbonyl)-1-methylcyclohexane-1-carboxylic acid] | 43 nM
5.2 nM | Cn1c(COc2ccc(Cl)c3c2[C@@H](CN2CC4(CC4)CC2=O)N(C(=O)[C@@H]2CCCC[C@]2(C)C(=O)O)CC3)cccc1=O [Example 214, (1S,2R)-2-((S)-5-chloro-8-((1-methyl-6-oxo-1,6-dihydropyridin-2-yl)methoxy)-1-((6-oxo-5-azaspiro [2.4]heptan-5-yl)methyl)-1,2,3,4-tetrahydroisoquinoline-2-carbonyl)-1-methylcyclohexane-1-carboxylic acid] | 41 nM
